From PMC5078025, “Necrosis-inducing peptide has the beneficial effect on killing tumor cells through neuropilin (NRP-1) targeting” (Oncotarget, 2016)
Bridge positions count the residues as written; N and C are the ends. Ends that are not written are not given here.

System: subcutaneous CT26 colorectal carcinoma tumors
Assay: Tumor volume in mice bearing subcutaneous CT26 tumors
Assay type: in vivo
Conditions: BALB/c mice bearing CT26 tumor, i.v. of 1 mM TU:MTDs twice or three times, n = 3, observed until 9 days
Description: Figure 1 Identification of TU17:MTD as a tumor targeting peptide (A) Schematic diagram of the fusion peptides consisting of the tumor-homing motif, linker, and mitochondrial targeting domain (MTD). (B) Tumors were generated over 2 weeks after s.c. injection of CT26 cells into the backs of BALB/c mice. […] Arrows indicate the points of peptide injection. P values < 0.02 (control group vs TU17:MTD at day 5, 6, 7, 8, and 9) (C) HCT116, HeLa, A549, MCF-7, PC3, and BJAB cells were treated with TU17:MTD (0 ~ 20 μM) for 30 minutes, and cell viability was monitored using XTT assays. *P < 0.05 (D) Primary splenocytes and macrophages were treated with TU17:MTD (0 ~ 20 μM) for 30 minutes, and cell viability was monitored by XTT assay. *P < 0.05 (E) CT26 cells were treated with R8:MTD, TU17:MTD, TU17-2:MTD or TU17:MTD^4A (0 ~ 40 μM) for 4 hours, and cell viability was monitored by XTT assay. Results in C to E are expressed as means ± SD (triplicates), and are representative of at least two independent experiments. P values are for experimental groups versus controls and were calculated using Dunnett's t-test. *P < 0.05.
Figure 3 Effects of TU17:MTD, TU17-2:MTD, and TU17-2:D(KLAKLAK)2 on tumor tissues in vivo (A) Tumors were generated over 7~8 days after s.c. injection of CT26 cells into the backs of BALB/c mice. […]

KLLNLISKLFCRGDKRLYDC (disulfide 11-20 (inferred)) [TU11:MTD]
Toxicity/Tumor growth: Toxic

CNGRCVSGCAGRCGGKLLNLISKLF [TU2:MTD, MTD peptide fused with tumor-homing motif, linear]
Toxicity/Tumor growth: NR (NR; no regression)
